Legend:
[1] = Effect of food (high-fat and high-calorie meal) on pharmacokinetics in healthy subjects; type: in vivo, human
[2] = human, in vivo
in vitro = in vitro ADME; conditions: human
[3] = Excretion following a single oral dose of radiolabeled erdafitinib; type: in vivo, human
clinical = conditions: human, in vivo
serum phosphate = test: Pharmacodynamics: serum phosphate level; type: in vivo, human; conditions: consequence of FGFR inhibition
From the text: To manage phosphate elevation, phosphate binders were permitted. Avoid concomitant use with agents that can alter serum phosphate levels before the initial dose increase period based on serum phosphate levels.

COc1cc(OC)cc(N(CCNC(C)C)c2ccc3ncc(-c4cnn(C)c4)nc3c2)c1 [erdafitinib, N-(3,5-dimethoxy-phenyl)-N′-(1-methylethyl)-N-[3-(1-methyl-1H-pyrazol-4-yl)quinoxalin-6-yl]ethane-1,2-diamine]
Effect of food on erdafitinib pharmacokinetics [1]: No clinically meaningful differences
Circulating metabolites in plasma [2]: no circulating metabolites
Exposure (Cmax and AUC) versus dose [2]: increased proportionally
Mean total apparent clearance (CL/F) [2]: 0.362 L/h
Time to steady state [2]: 2 weeks
fraction unbound (in vitro): 0.002
Dose recovered in feces [3]: approximately 69%
Dose recovered in feces as unchanged [3]: 19%
Dose recovered in urine [3]: 19%
Dose recovered in urine as unchanged [3]: 13%
Vd (clinical): 29 L
half-life (clinical): 59 h
Effect on serum phosphate level (serum phosphate): increased serum phosphate level

— US20220175768A1, “FGFR TYROSINE KINASE INHIBITORS FOR THE TREATMENT OF UROTHELIAL CARCINOMA” (Janssen Pharmaceutica NV, priority 2019, published 2022)
